Where two headings read alike, the source gives them in different places.
Key:
M. tuberculosis = assay: microbe, parasite or virus in culture; format: cell-based; conditions: for IC50 / IC90: Mycobacterium tuberculosis; for IC50: 168 h, read-out: IC50 (μM) M.tb/REMA; for IC90: read-out: IC90 (μM) M.tb/REMA
zebrafish embryos = conditions: in vivo
in vitro = conditions: human, microsomes, pH 7.4
[1] = human, microsomes, pH 7.4; for Compound remaining (%): 0.5 h
M. bovis (BCG) = format: cell-based
[2] = tested on: M. smegmatis overexpressing ethA; format: cell-based
M. kansasii = assay: Cell viability assay (REMA), susceptibility of bacterial cultures; format: cell-based; conditions: tested up to 80 μM
[3] = tested on: PE_PGRS and EsxN (ESX-5 dependent secretion); format: cell-based
[4] = tested on: M. marinum overexpressing ethA; format: cell-based
M. marinum = format: cell-based
Escherichia coli = assay: Cell viability assay (REMA), susceptibility of bacterial cultures; format: cell-based; conditions: highest tested amount (80 μM)
[5] = tested on: fast-growing mycobacteria; assay: as above; format: cell-based; conditions: up to 80 μM
M. interjectum = assay: as above; format: cell-based; conditions: tested up to 80 μM
Bacillus subtilis = assay: as above; format: cell-based; conditions: highest tested amount (80 μM)
[6] = tested on: ESX-5 dependent secretion; format: cell-based
M. avium = assay: Cell viability assay (REMA), susceptibility of bacterial cultures; format: cell-based; conditions: tested up to 80 μM
M. tuberculosis H37Rv WT = assay: THP-1 macrophage infection study, CFU counting; format: cell-based, Mycobacterium tuberculosis
[7] = tested on: EsxA (ESX-1 dependent secretion); format: cell-based
[8] = tested on: M. marinum WT bacteria expressing rfp; conditions: 10 μM
Description: To assess anti-bacterial activity of the compounds in an animal model, zebra-fish embryos were infected by injection of WT M. marinum into the cardinal vein. The bacteria express rfp, which enables the quantification of infection in vivo by measuring red fluorescence. After injection of the bacteria into the fish, the infection was allowed to establish for 20 h. Then, the test compounds or DMSO control were added for three days before the infection was quantified by measuring fluorescence in each fish. […] Dechorionated zebra fish embryos were one day post fertilization infected by microinjection into the cardinal vein with 70 M. marinum WT bacteria expressing rfp. 20 h after infection, the compounds were added to the fish water at the indicated concentrations. After 4 days post infection the fish were imaged on a fluorescent microscope (A) and red pixels were quantified (B). As control served non-treated fish and non-infected fish. The fish water of all groups contained equal amounts of DMSO. Each data point represents a single fish. […] Statistical analysis was determined by ANOVA testing by comparing each group to the non-treated group of fish. p>0.05, not significant, not indicated. p<0.05=*, p<0.01=**, p<0.001=***.

[9] = replicating M. tuberculosis, seven days, 37° C.
[10] = concentration that reduced bacterial viability to lower than 10%
[11] = THP-1 macrophages, MOI 1, day 5

Question: Which IC50 (M. tuberculosis) does the source give for `O=C(CSc1nc(-c2ccccc2)no1)NC1CCCC1` [Compound I-28] here?
Answer: 2.11 µM

Question: And the IC90 (M. tuberculosis)?
Answer: 5 µM

Question: With `CCOC(=O)CNC(=O)CSc1nc(-c2ccccc2)ns1` [Compound I-41, reference compound] as the compound, how does the “toxicity (survival of zebra fish embryos scored by heartbeat)” value (zebrafish embryos) read?
Answer: toxic

Question: What about the IC50 (M. tuberculosis) of the same compound?
Answer: 0.269 µM

Question: And the IC90 (M. tuberculosis)?
Answer: 0.63 µM

Question: For `COc1ccc(-c2nsc(SCC(=O)OC3CCCC3)n2)cc1` [Compound I-25], which IC50 (M. tuberculosis; [9]) is on record?
Answer: 0.526 µM

Question: And the IC90 (M. tuberculosis; [10])?
Answer: 5 µM

Question: For `COc1ccc(-c2nsc(SCC(=O)Nc3cnccn3)n2)cc1` [Compound I-24], which IC50 (M. tuberculosis; [9]) is on record?
Answer: 4.1 µM

Question: What about the IC90 (M. tuberculosis; [10]) of the same compound?
Answer: 2.5 µM

Question: With `O=C(CSc1nc(-c2ccccc2)ns1)NC1CCCC1` [Compound I-26] as the compound, how does the IC50 (M. tuberculosis; [9]) read?
Answer: 1.17 µM

Question: And the IC90 (M. tuberculosis; [10])?
Answer: 5 µM

Question: With `C=CCNC(=O)CSc1nc(-c2ccc(OC)cc2)ns1` [Compound I-6] as the compound, how does the IC50 (M. tuberculosis) read?
Answer: 0.291 µM

Question: What about the IC90 (M. tuberculosis) of the same compound?
Answer: 0.63 µM

Question: Which CLint scaled (in vitro) does the source give for `O=C(CSc1nc(-c2ccc(Cl)cc2)ns1)NCCC(F)(F)F` [Compound I-37] here?
Answer: 18 mL/min/kg

Question: And the IC50 (M. tuberculosis; [9])?
Answer: 0.116 µM

Question: And the IC90 (M. tuberculosis; [10])?
Answer: 0.31 µM

Question: And the “Compound remaining (%)” value [1]?
Answer: 55%

Question: And the “Half-life” value [1]?
Answer: 34.8 min

Question: Which IC50 (M. tuberculosis; [9]) does the source give for `COc1ccc(-c2nsc(SCC(=O)NC(C)(C)C)n2)cc1` [Compound I-32] here?
Answer: 0.109 µM

Question: And the IC90 (M. tuberculosis; [10])?
Answer: > 10 µM

Question: With `COc1ccc(-c2nsc(SCC(=O)NC3CCCC3)n2)cc1` [Compound I-12] as the compound, how does the “susceptibility (REMA)” value (M. bovis (BCG)) read?
Answer: susceptible

Question: What about the “susceptibility on overexpression of ethA” value [2] of the same compound?
Answer: did not render this strain susceptible

Question: What about the “susceptibility (REMA)” value (M. kansasii) of the same compound?
Answer: susceptible

Question: What about the “concentration at which reduction of ESX-5 substrates EsxN and PE_PGRS proteins was observed” value [3] of the same compound?
Answer: 10 µM

Question: What about the “increased susceptibility as compared to the parent WT strain” value [4] of the same compound?
Answer: at least 4 fold

Question: And the “increase of MIC towards M. marinum when mspA was over-produced” value (M. marinum)?
Answer: 2 fold

Question: What about the “more compound required to significantly reduce viability when mspA was over-produced” value (M. marinum) of the same compound?
Answer: 4 fold

Question: And the “reduction in bacterial viability (REMA)” value (M. marinum)?
Answer: 77%

Question: And the “susceptibility (REMA)” value (M. marinum)?
Answer: susceptible

Question: And the “susceptibility (REMA)” value (Escherichia coli)?
Answer: resistant

Question: And the “susceptibility (REMA)” value [5]?
Answer: resistant

Question: What about the “susceptibility (REMA)” value (M. interjectum) of the same compound?
Answer: resistant

Question: And the “susceptibility (REMA)” value (Bacillus subtilis)?
Answer: resistant

Question: What about the “ESX-5 activity, % of the DMSO treated control” value [6] of the same compound?
Answer: 27%

Question: And the “susceptibility (REMA)” value (M. avium)?
Answer: resistant

Question: What about the IC50 (M. tuberculosis) of the same compound?
Answer: 0.535 µM

Question: What about the IC90 (M. tuberculosis) of the same compound?
Answer: 1.25 µM

Question: What about the “susceptibility (REMA)” value (M. tuberculosis; tested up to 80 μM) of the same compound?
Answer: susceptible

Question: What about the “concentration required to reduce the bacterial load below the initial amount on day 0” value (M. tuberculosis H37Rv WT; [11]) of the same compound?
Answer: 10 µM

Question: And the “concentration with significant decrease of bacterial load as compared to the DMSO control” value (M. tuberculosis H37Rv WT; [11])?
Answer: 3 µM

Question: What about the “secretion of EsxA” value [7] of the same compound?
Answer: reduced secretion of EsxA

Question: Which CLint scaled at 15 μM (in vitro) does the source give for `O=C(COc1nc(-c2ccccc2)ns1)NC1CCCC1` [Compound I-33] here?
Answer: 10.1 mL/min/kg

Question: What about the IC50 (M. tuberculosis; [9]) of the same compound?
Answer: 7.85 µM

Question: And the IC90 (M. tuberculosis; [10])?
Answer: 10 µM

Question: What about the “Half-life” value ([1]; 15 μM) of the same compound?
Answer: 61.8 min

Question: And the “Compound remaining (%)” value [1]?
Answer: 72%

Question: What does the source list for `CCCNC(=O)CSc1nc(-c2ccc(Cl)cc2)ns1` [Compound I-36]?
Answer: CLint scaled at 15 μM (in vitro): 14.4 mL/min/kg; IC50 (M. tuberculosis; [9]): 0.058 µM; IC90 (M. tuberculosis; [10]): 0.16 µM; Half-life ([1]; 15 μM): 43.2 min; Compound remaining (%) [1]: 62%

Question: Which IC50 (M. tuberculosis; [9]) does the source give for `O=C(CSc1nc(-c2ccncc2)ns1)NC1CCCC1` [Compound I-23] here?
Answer: 0.762 µM

Question: And the IC90 (M. tuberculosis; [10])?
Answer: 2.5 µM

Question: For `CNC(=O)CSc1nc(-c2ccc(OC)cc2)ns1` [Compound I-27], which IC50 (M. tuberculosis; [9]) is on record?
Answer: 1.85 µM

Question: And the IC90 (M. tuberculosis; [10])?
Answer: 5 µM

Question: Which results are given for `CCCC(C)NC(=O)CSc1nc(-c2ccc(OC)cc2)ns1` (stereo not shown) [Compound I-29]?
Answer: IC50 (M. tuberculosis; [9]): 1.25 µM; IC90 (M. tuberculosis; [10]): 10 µM

Question: Which IC50 (M. tuberculosis; [9]) does the source give for `Cc1cccc(-c2nsc(SCC(=O)N3CCCCC3)n2)c1` [Compound I-18, reference compound] here?
Answer: 0.251 µM

Question: What about the IC90 (M. tuberculosis; [10]) of the same compound?
Answer: 2.5 µM

Question: With `Cc1cccc(-c2nsc(SCC(=O)NC3CCCC3)n2)c1` [Compound I-16] as the compound, how does the IC50 (M. tuberculosis; [9]) read?
Answer: 0.121 µM

Question: And the IC90 (M. tuberculosis; [10])?
Answer: 2.5 µM

Question: For `COc1ccc(-c2nsc(SCC(=O)Nc3ccccc3)n2)cc1` [Compound I-21], which IC50 (M. tuberculosis; [9]) is on record?
Answer: 0.559 µM

Question: What about the IC90 (M. tuberculosis; [10]) of the same compound?
Answer: 2.5 µM

Question: With `CO[C@H]1/C=C/O[C@@]2(C)Oc3c(C)c(O)c4c(O)c(c(/C=N/N5CCN(C)CC5)c(O)c4c3C2=O)NC(=O)/C(C)=C\C=C\[C@H](C)[C@H](O)[C@@H](C)[C@@H](O)[C@@H](C)[C@H](OC(C)=O)[C@@H]1C` [Rifampin, reference compound] as the compound, how does the “bacterial viability (REMA) readout, control condition” value (M. marinum) read?
Answer: negative

Question: Which IC50 (M. tuberculosis; [9]) does the source give for `COc1ccc(-c2nsc(SCC(=O)Nc3ccccn3)n2)cc1` [Compound I-20] here?
Answer: 0.502 µM

Question: And the IC90 (M. tuberculosis; [10])?
Answer: 2.5 µM

Question: For `CCCNC(=O)CSc1nc(-c2ccc(OC)cc2)ns1` [Compound I-3], which CLint scaled at 15 μM (in vitro) is on record?
Answer: 67.4 mL/min/kg

Question: And the bacterial fluorescence [8]?
Answer: reduction of bacterial fluorescence to background levels

Question: What about the IC50 (M. tuberculosis; [9]) of the same compound?
Answer: 0.123 µM

Question: What about the IC90 (M. tuberculosis; [10]) of the same compound?
Answer: 0.63 µM

Question: What about the “increase of activity as compared to compound I-12” value (M. tuberculosis; tested on M. tuberculosis) of the same compound?
Answer: four-fold

Question: And the “Half-life” value ([1]; 15 μM)?
Answer: 9 min

Question: What about the “Compound remaining (%)” value [1] of the same compound?
Answer: 11%

Question: And the “activity compared with Ethambutol (EMB)” value (M. tuberculosis H37Rv WT; 10 μM)?
Answer: as active as EMB

Question: What about the “activity compared with Streptomycin (STR)” value (M. tuberculosis H37Rv WT; 10 μM) of the same compound?
Answer: higher activity than STR

Question: And the “reduction of bacteria as compared to the DMSO control” value (M. tuberculosis H37Rv WT; 10 μM)?
Answer: approximately 100 fold

Question: What about the “concentration with significant decrease of bacterial load as compared to the DMSO control” value (M. tuberculosis H37Rv WT; [11]) of the same compound?
Answer: 1 µM

Question: With `COCCNC(=O)CSc1nc(-c2ccc(OC)cc2)ns1` [Compound I-4] as the compound, how does the IC50 (M. tuberculosis; [9]) read?
Answer: 0.133 µM

Question: What about the IC90 (M. tuberculosis; [10]) of the same compound?
Answer: 0.63 µM
